Assay results as given in patent publication US20200216493A1, “ANTIMICROBIAL PEPTIDES” (FERRING B.V., priority 2016, published 2020).
≈ marks a conversion by molar mass, not a printed value.

Assays:
[1] = system: S. pneumoniae (8 isolates); type: cell-based, Streptococcus pneumonia; conditions: 20 h
Experimental: (§1) The broth microdilution susceptibility assay followed the procedure described by the Clinical and Laboratory Standards Institute (CLSI) in CLSI document M7-A10.
(§2) The following bacteria isolates were tested:
(§3) S.aureus, S.epidermidis, E.faecalis, and E.faecium colonies were grown on TSA (Tryptone Soya Agar; cat.N. P05012A -OXOID) S.pneumoniae and S.pyogenes colonies were grown on TSASB ((TSA) Agar +5% Sheep Blood; cat.N. PB5012A -OXOID). An inoculum was prepared by making a direct saline suspension of isolated colonies selected from an 18 to 24 hours agar plate incubated at 35±2 ° C. in ambient air. The suspension was adjusted to achieve a turbidity equivalent to a 0.5 McFarland turbidity standard (1 to 2 ×10^8 Colony Forming Units (CFU)) and diluted 200 fold within 15 minutes in broth. (S.aureus, S.epidermidis, E.faecalis, and E.faecium were diluted in CAMHB: Mueller Hinton Broth 2, Cation-Adjusted (cat. N. 90922 Fluka); S.pneumoniae and S.pyogenes were diluted in CAMHB +2.5% lysed horse blood. All broth contained 0.002% polysorbate 80.
(§4) 96-well plates were prepared containing 1 μL of the test compound (at 100× desired test concentration in 100% DMSO); compounds were tested at 8 final concentrations, i.e. 16 μg/mL, 8 μg/mL, 4 μg/mL, 2 μg/mL, 1 μg/mL, 0.5 μg/mL, 0.25 μg/mL, and 0.125 μg/mL. 100 μL of the broth dilution was dispensed in each well plate to have a final bacterial concentration in plate of ˜5×10^5 CFU/mL. The plates were incubated at 35±2° C. in ambient air for 20 hours.

[2] = system: S. pyogenes (2 isolates); type: cell-based, Streptococcus pyogenes; conditions: 20 h
Experimental: as §1, §2, §3, §4

[3] = system: S. epidermidis (5 isolates); type: cell-based, Staphylococcus epidermidis; conditions: 20 h
Experimental: as §1, §2, §3, §4

[4] = in vitro; type: cell-based; conditions: human, HepG2 cells
Experimental: Compounds were tested for cytotoxicity to a mammalian cell line HepG2 (Human hepatocyte carcinoma from ECACC (85011430)). Hep G2 cells were seeded into 96-well plates, 7500 cells/well in 100 μl medium (Minimum Essential Medium (Gibco 21090) supplemented with 2 mM L-Glutamine, 1% non-essential amino acids and 10% fetal bovine serum) and incubated for 20 hours at 37° C., 5% CO2. 100 μL of fresh medium containing a test compound or DMSO (for control) at 2× final concentration were added and incubated for 48 hours at 37° C., 5% CO2. The final concentration of DMSO in plate was 1%. At the end of this incubation, 20 μl MTT (Thiazolyl Blue Tetrazolium Bromide) solution 5 mg/ml in H2O (0.5 mg/ml final in well) was added to all wells. Cells were incubated with MTT for 4 hours at 37° C., 5% CO2. After incubation, medium containing MTT was removed; 200 μl of DMSO was added in each well and plates were put on a shaker for 5 minutes. Absorbance was read on a SpectraMax plate reader at 570 nm. Specific absorbance (Specific A570) was calculated by subtracting the mean absorbance values of the blank wells (no HepG2 cells) from each well. Control values were determined from wells containing cells and treated with medium+1% DMSO only (no test compound). % viability was calculated as:
(Specific A570test compound/Specific A570control)×100.

[5] = system: B. fragilis
[6] = system: S. aureus (14 isolates); type: cell-based, Staphylococcus aureus; conditions: 20 h
Experimental: as §1, §2, §3, §4

[7] = system: E. faecalis (5 isolates); type: cell-based, Enterococcus faecalis; conditions: 20 h
Experimental: as §1, §2, §3, §4

[8] = system: C. difficile
[9] = system: S.aureus; type: cell-based, Staphylococcus aureus
Experimental: (§5) This assay was used to determine the minimum concentration of a test compound (i.e., an antimicrobial peptide described herein) able to inhibit the growth of a bacterial strain of interest. This is a standard method for measuring and comparing the potency of peptide-based antibacterial agents (Steinberg et al., Antimicrobial Agents and Chemotherapy 1997, 41 (8) 1738 - 1742 and Wiegand et al., Nature Protocols 2008, 3, 163-175).
(§6) The MIC is reported in units of μg/mL.
(§7) Bacterial cultures were grown by inoculating Mueller-Hinton Broth (MHB) with 3 or 4 representative colony (typical size, color, and shape) from a bacterial strain grown on a LB agar plate. Inoculated liquid cultures were grown at 37° C. with moderate shaking (200-250 rpm) until bacteria produced a visibly turbid suspension. Bacterial inoculum was approximated by measuring the optical density at 600 nm (0D600) of the bacterial culture against a sterile MHB blank. Typically, OD600=0.10 corresponds to ˜1×10^8 cfu/mL for S.aureus and OD600 =0.15 corresponds to ˜1×10^8 cfu/mL for E.coli.
(§8) Test compounds were prepared as stock solutions in vehicle at a concentration 10 times the highest concentration to be tested for antibacterial activity (usually 320 μg/mL stock solutions). 2x serial dilutions in vehicle (at 10× the final test concentrations) of the test compounds were prepared from the test compound stock solutions in a non-binding 96 well plate.
(§9) In a sterile clear flat bottom 96 well plate, 15 μL of each test compound dilution was added to 135 μL of ˜5×10^5 cfu/mL bacterial culture. Each concentration was tested in duplicate. Each experiment contained positive control wells for bacterial growth (i.e., no test compound added to bacteria) and sterility controls wells (i.e., sterile MHB and no test compounds added). 96 well plates containing bacterial cultures and test compounds were incubated at 37° C. for 16-20 hours with shaking at 200 rpm.
(§10) After incubation, the MIC of each test compound was determined by measuring the OD600 of each well using a plate reader. Wells with OD600 >0.08 were considered to have bacterial growth and wells with OD600<0.08 were considered to have no bacterial growth. The lowest concentration of test agent able to inhibit bacterial growth (0D600<0.08 after 16-20 hours) was defined as the MIC.

[10] = system: E.coli; type: cell-based, Escherichia coli; conditions: for MIC ratio Coli/Staph: ratio of E. coli MIC to S. aureus MIC
Experimental: as §5, §6, §7, §8, §9, §10

[11] = system: E. faecium (3 isolates); type: cell-based, Enterococcus faecium; conditions: 20 h
Experimental: as §1, §2, §3, §4

Compound	S. pneumoniae (8) MIC90 [1]	S. pyogenes (2) MIC90 [2]	S. epidermidis (MIC90) (5) [3]	viability at 48 h, 100 µM [4]	MIC B. fragilis [5]	S. Aureus (14) MIC90 [6]	E. faecalis (5) MIC90 [7]	MIC C. difficile [8]	MIC S. aureus [9]	MIC E. coli [10]	MIC ratio Coli/Staph [10]	E. faecium (3) MIC90 [11]
CC[C@H](C)[C@H](NC(=O)[C@@H](Cc1ccccc1)NC)C(=O)N[C@@H](CO)C(=O)N[C@H](CCC(N)=O)C(=O)N[C@@H](C(=O)N[C@H](C(=O)N[C@@H](CO)C(=O)N[C@H]1C(=O)N[C@@H](C)C(=O)N[C@@H](Cc2ccc(NC(=N)N)cc2)C(=O)N[C@@H]([C@@H](C)CC)C(=O)O[C@H]1C)[C@@H](C)CC)[C@@H](C)CC [Compound 72, H-D-MePhe-Ile-Ser-D-Gln-D-aIle-Ile-Ser-c(D-Thr-Ala-Phe(4-guanidino)-Ile)]	≤0.12 µg/mL	≤0.12 µg/mL	≤0.12 µg/mL	115%	>32 µg/mL	0.25 µg/mL	0.5 µg/mL	0.25 to 0.5 µg/mL	0.12 to 0.25 µg/mL	>16 µg/mL	>128	0.5 µg/mL
CC[C@H](C)[C@H](NC(=O)[C@@H](Cc1ccc(OC)cc1)NC)C(=O)N[C@@H](CO)C(=O)N[C@H](CCC(N)=O)C(=O)N[C@@H](C(=O)N[C@H](C(=O)N[C@@H](CO)C(=O)N[C@H]1C(=O)N[C@@H](C)C(=O)N[C@@H](CCCCNC(=N)N)C(=O)N[C@@H]([C@@H](C)CC)C(=O)O[C@H]1C)[C@@H](C)CC)[C@@H](C)CC [Compound 74, H-D-MeTyr(Me)-Ile-Ser-D-Gln-D-aIle-Ile-Ser-c(D-Thr-Ala-Har-Ile)]	≤0.12 µg/mL	≤0.12 µg/mL	≤0.12 µg/mL	136%	>32 µg/mL	≤0.12 µg/mL	1 µg/mL	0.06 to 0.12 µg/mL	0.06 µg/mL (≈ 0.0466 µM)	>16 µg/mL	>530	0.5 µg/mL
CC[C@H](C)[C@H](NC(=O)[C@@H](Cc1ccc2ccccc2c1)NC)C(=O)N[C@@H](CO)C(=O)N[C@H](CCC(N)=O)C(=O)N[C@@H](C(=O)N[C@H](C(=O)N[C@@H](CO)C(=O)N[C@H]1C(=O)N[C@@H](C)C(=O)N[C@@H](CCCCNC(=N)N)C(=O)N[C@@H]([C@@H](C)CC)C(=O)O[C@H]1C)[C@@H](C)CC)[C@@H](C)CC [Compound 75, H-D-Me2Nal-Ile-Ser-D-Gln-D-aIle-Ile-Ser-c(D-Thr-Ala-Har-Ile)]	≤0.12 µg/mL	≤0.12 µg/mL	≤0.12 µg/mL	119%	>32 µg/mL	≤0.12 µg/mL	≤0.12 µg/mL	0.015 to 0.03 µg/mL	0.06 µg/mL (≈ 0.0459 µM)	>16 µg/mL	>530	≤0.12 µg/mL
